Results on two molecules are retold here after patent US20240376094A2, “SELECTIVE BCL-XL PROTAC COMPOUNDS AND METHODS OF USE” (Les Laboratoires Servier, priority 2021, published 2024).

The subject of one assay is MOLT-4 cells. Put plainly: MOLT-4 cell viability, MTT assay. Format: cell-based. The following applies: Homo sapiens, MOLT-4, 48 h. The method in brief:
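MOLT-4 cells in RPMI 1640 with 10% FBS were exposed to compounds for 48 h at 9 concentrations (3.16-fold dilutions, triplicates). After 4 h with MTT and overnight SDS/HCl solubilisation, absorbance was read at 540 nm. IC50 came from four-parameter fits versus control, as the mean of ≥2 independent experiments.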
(In general: Formazan colour is commonly taken as a measure of viable cells.)

A further assay concerns COR-L105. As to the kind of experiment: CellTiter-Glo proliferation assay, COR-L105. Format: cell-based. The following applies: COR-L105, 5 days. In a few lines: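 Both lines grown in RPMI-1640 + 10% FBS. COR-L105 plated flat at 1,000 cells/well overnight; NCI-H1650 grown as spheroids, 3,000 cells/well, 72 h. Compounds at 0.508 nM-10 μM final for 5 days, 37° C. ATP read by CellTiter-Glo (3D version for spheroids); IC50 from variable-slope fit normalized to untreated cells.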

For `Cc1ncsc1-c1ccc(CNC(=O)[C@@H]2CC(O)CN2C(=O)C(NC(=O)CCCCCCC(=O)N2CCN(CCOC34CC5(C)CC(C)(CC(Cn6ncc(-c7ccc(N8CCCc9c8nnc(Nc8nc%10ccccc%10s8)c9C)nc7C(=O)O)c6C)(C5)C3)C4)CC2)C(C)(C)C)cc1` (stereo in doubt) [Example 24, 6-[3-(1,3-benzothiazol-2-ylamino)-4-methyl-6,7-dihydro-5H-pyrido[2,3-c]pyridazin-8-yl]-3-[1-[[3-[2-[4-[8-[[(1S)-1-[(2S,4R)-4-hydroxy-2-[[4-(4-methylthiazol-5-yl)phenyl]methylcarbamoyl]pyrrolidine-1-carbonyl]-2,2-dimethyl-propyl]amino]-8-oxo-octanoyl]piperazin-1-yl]ethoxy]-5,7-dimethyl-1-adamantyl]methyl]-5-methyl-pyrazol-4-yl]pyridine-2-carboxylic acid], the IC50 in the assay with MOLT-4 cells was found to be 2.64 nM; with COR-L105, 348 nM; with COR-L105 (Homo sapiens, COR-L105, 120 h), 500 nM. In addition, the Emax with COR-L105 (Homo sapiens, COR-L105, 120 h, read-out: COR-L105 Span (max)) was 104%.
`Cc1ncsc1-c1ccc([C@H](C)NC(=O)[C@@H]2C[C@@H](O)CN2C(=O)[C@@H](NC(=O)CCCCCCCN(C)CCOC23CC4(C)CC(C)(CC(Cn5ncc(-c6ccc(N7CCCc8c7nnc(Nc7nc9ccccc9s7)c8C)nc6C(=O)O)c5C)(C4)C2)C3)C(C)(C)C)cc1` [Example 6, 6-[3-(1,3-benzothiazol-2-ylamino)-4-methyl-6,7-dihydro-5H-pyrido[2,3-c]pyridazin-8-yl]-3-[1-[[3-[2-[[8-[[(1S)-1-[(2S,4R)-4-hydroxy-2-[[(1S)-1-[4-(4-methylthiazol-5-yl)phenyl]ethyl]carbamoyl]pyrrolidine-1-carbonyl]-2,2-dimethyl-propyl]amino]-8-oxo-octyl]-methyl-amino]ethoxy]-5,7-dimethyl-1-adamantyl]methyl]-5-methyl-pyrazol-4-yl]pyridine-2-carboxylic acid] registered an IC50 with MOLT-4 cells of 6.57 nM.

As usually defined, the IC50 is the point on the concentration scale where inhibition reaches its midpoint. Low values mean greater potency in that assay, high ones weaker potency in that assay.
